Assay results as given in ChEMBL document CHEMBL3885861, “Open TG-GATES”.

Organism: Rattus norvegicus
Assay: Open TG-GATES - Regimen: Daily Repeat
Type: toxicity, organism-based, Sprague-Dawley
Design: regimen Daily Repeat, gender Male, age 6 weeks
Settings: in vivo, po, route gavage; for APTT / Bas / Eos / Fbg / Hb / Ht / Lym / MCH / MCHC / MCV / Mono / Neu / PT / Plat / RBC / Ret / WBC: tissue Blood; for KIDNEY_L / KIDNEY_R / KIDNEY_TOTAL: tissue Kidney; for LIVER: tissue Liver; for A/G / ALP / ALT / AST / BUN / CRE / Ca / Cl / DBIL / GLC / IP / K / LDH / Na / PL / RALB / TBIL / TC / TG / TP / gamma-GTP: tissue Plasma
[1] = 30 mg/kg, 72 h, dose level Middle, time 3 day
[2] = 30 mg/kg, […], dose level Middle, time 7 day
[3] = 30 mg/kg, […], dose level Middle, time 14 day
[4] = 30 mg/kg, […], dose level Middle, time 28 day
[5] = 100 mg/kg, 72 h, dose level High, time 3 day
[6] = 100 mg/kg, […], dose level High, time 7 day
[7] = 100 mg/kg, […], dose level High, time 14 day
[8] = 100 mg/kg, […], dose level High, time 28 day

NC(=O)N/N=C/c1ccc([N+](=O)[O-])o1 [NITROFURAZONE]
TERMINAL_BW [1]: 221 g
APTT [1]: 15.2 s
Bas [1]: 0%
Eos [1]: 0.8%
Fbg [1]: 285 mg/dL
Hb [1]: 12.7 g/dL
Ht [1]: 38.3%
Lym [1]: 78.8%
MCH [1]: 21.6 pg
MCHC [1]: 33.2%
MCV [1]: 65 fL
Mono [1]: 3.2%
Neu [1]: 16.6%
PT [1]: 14.2 s
Plat [1]: 119.4 x10_4/uL
RBC [1]: 589.8 x10_4/ul
Ret [1]: 8.5%
WBC [1]: 86.5 x10_2/uL
KIDNEY_L [1]: 1 g
KIDNEY_R [1]: 0.9 g
KIDNEY_TOTAL [1]: 1.9 g
LIVER [1]: 11.3 g
A/G [1]: 0.9
ALP [1]: 1653.2 IU/L
ALT [1]: 46.2 IU/L
AST [1]: 70 IU/L
BUN [1]: 15.4 mg/dL
CRE [1]: 0.2 mg/dL
Ca [1]: 11.4 mg/dL
Cl [1]: 104.2 meq/L
DBIL [1]: 0.016 mg/dL
GLC [1]: 182 mg/dL
IP [1]: 8 mg/dL
K [1]: 4.4 meq/L
LDH [1]: 113.2 IU/L
Na [1]: 140.6 meq/L
PL [1]: 164.4 mg/dL
RALB [1]: 2.5 g/dL
TBIL [1]: 0.048 mg/dL
TC [1]: 91.4 mg/dL
TG [1]: 98.6 mg/dL
TP [1]: 5.5 g/dL
gamma-GTP [1]: 1 IU/L
TERMINAL_BW [2]: 259.6 g
TERMINAL_BW [3]: 325.5 g
TERMINAL_BW [4]: 410.1 g
APTT [2]: 16.5 s
Bas [2]: 0%
Eos [2]: 1%
Fbg [2]: 267 mg/dL
Hb [2]: 13.2 g/dL
Ht [2]: 39.5%
Lym [2]: 76%
MCH [2]: 21.1 pg
MCHC [2]: 33.5%
MCV [2]: 63.1 fL
Mono [2]: 2.6%
Neu [2]: 20.2%
PT [2]: 14.3 s
Plat [2]: 120.3 x10_4/uL
RBC [2]: 625.8 x10_4/ul
Ret [2]: 7.3%
WBC [2]: 103.6 x10_2/uL
APTT [3]: 14.3 s
Bas [3]: 0%
Eos [3]: 0.8%
Fbg [3]: 308.8 mg/dL
Hb [3]: 13.5 g/dL
Ht [3]: 41.1%
Lym [3]: 81.8%
MCH [3]: 20.8 pg
MCHC [3]: 32.9%
MCV [3]: 63.2 fL
Mono [3]: 2.4%
Neu [3]: 14.2%
PT [3]: 14.4 s
Plat [3]: 117.9 x10_4/uL
RBC [3]: 650.8 x10_4/ul
Ret [3]: 6.1%
WBC [3]: 78.6 x10_2/uL
APTT [4]: 15.7 s
Bas [4]: 0.2%
Eos [4]: 1%
Fbg [4]: 294 mg/dL
Hb [4]: 14.3 g/dL
Ht [4]: 42.2%
Lym [4]: 82.8%
MCH [4]: 19.7 pg
MCHC [4]: 33.8%
MCV [4]: 58.2 fL
Mono [4]: 2%
Neu [4]: 13.6%
PT [4]: 14.3 s
Plat [4]: 99 x10_4/uL
RBC [4]: 727.8 x10_4/ul
Ret [4]: 4.2%
WBC [4]: 114.5 x10_2/uL
KIDNEY_L [2]: 1.1 g
KIDNEY_R [2]: 1.2 g
KIDNEY_TOTAL [2]: 2.3 g
KIDNEY_L [3]: 1.3 g
KIDNEY_R [3]: 1.3 g
KIDNEY_TOTAL [3]: 2.6 g
KIDNEY_L [4]: 1.6 g
KIDNEY_R [4]: 1.6 g
KIDNEY_TOTAL [4]: 3.3 g
LIVER [2]: 13.3 g
LIVER [3]: 17 g
LIVER [4]: 19 g
A/G [2]: 0.8
ALP [2]: 1619 IU/L
ALT [2]: 41 IU/L
AST [2]: 62.6 IU/L
BUN [2]: 13.8 mg/dL
CRE [2]: 0.2 mg/dL
Ca [2]: 11.2 mg/dL
Cl [2]: 103.6 meq/L
DBIL [2]: 0.016 mg/dL
GLC [2]: 181.8 mg/dL
IP [2]: 7.7 mg/dL
K [2]: 3.8 meq/L
LDH [2]: 90.2 IU/L
Na [2]: 141.8 meq/L
PL [2]: 155.8 mg/dL
RALB [2]: 2.6 g/dL
TBIL [2]: 0.048 mg/dL
TC [2]: 77.6 mg/dL
TG [2]: 117.4 mg/dL
TP [2]: 5.8 g/dL
gamma-GTP [2]: 1 IU/L
A/G [3]: 0.8
ALP [3]: 1501.8 IU/L
ALT [3]: 41.8 IU/L
AST [3]: 63.6 IU/L
BUN [3]: 18 mg/dL
CRE [3]: 0.2 mg/dL
Ca [3]: 11.1 mg/dL
Cl [3]: 103.6 meq/L
DBIL [3]: 0.014 mg/dL
GLC [3]: 193.4 mg/dL
IP [3]: 7.7 mg/dL
K [3]: 4.1 meq/L
LDH [3]: 89.8 IU/L
Na [3]: 142.2 meq/L
PL [3]: 169.2 mg/dL
RALB [3]: 2.8 g/dL
TBIL [3]: 0.05 mg/dL
TC [3]: 87.2 mg/dL
TG [3]: 107.6 mg/dL
TP [3]: 6.1 g/dL
gamma-GTP [3]: 1 IU/L
A/G [4]: 0.8
ALP [4]: 1102.6 IU/L
ALT [4]: 38 IU/L
AST [4]: 56.4 IU/L
BUN [4]: 16.4 mg/dL
CRE [4]: 0.2 mg/dL
Ca [4]: 10.7 mg/dL
Cl [4]: 103.2 meq/L
DBIL [4]: 0.012 mg/dL
GLC [4]: 182.4 mg/dL
IP [4]: 7.1 mg/dL
K [4]: 3.8 meq/L
LDH [4]: 43.2 IU/L
Na [4]: 142.8 meq/L
PL [4]: 163.8 mg/dL
RALB [4]: 2.8 g/dL
TBIL [4]: 0.076 mg/dL
TC [4]: 80.2 mg/dL
TG [4]: 104.4 mg/dL
TP [4]: 6.1 g/dL
gamma-GTP [4]: 1 IU/L
TERMINAL_BW [5]: 206.6 g
APTT [5]: 15 s
Bas [5]: 0%
Eos [5]: 1%
Fbg [5]: 297 mg/dL
Hb [5]: 12.7 g/dL
Ht [5]: 38.8%
Lym [5]: 83.6%
MCH [5]: 21.5 pg
MCHC [5]: 32.8%
MCV [5]: 65.6 fL
Mono [5]: 2.8%
Neu [5]: 11.6%
PT [5]: 14.6 s
Plat [5]: 102.7 x10_4/uL
RBC [5]: 593 x10_4/ul
Ret [5]: 7%
WBC [5]: 86.2 x10_2/uL
KIDNEY_L [5]: 0.9 g
KIDNEY_R [5]: 1 g
KIDNEY_TOTAL [5]: 1.9 g
LIVER [5]: 10.9 g
A/G [5]: 0.9
ALP [5]: 1305.8 IU/L
ALT [5]: 41.4 IU/L
AST [5]: 71.4 IU/L
BUN [5]: 16 mg/dL
CRE [5]: 0.2 mg/dL
Ca [5]: 11 mg/dL
Cl [5]: 104 meq/L
DBIL [5]: 0.016 mg/dL
GLC [5]: 176.4 mg/dL
IP [5]: 7.8 mg/dL
K [5]: 4.5 meq/L
LDH [5]: 67.6 IU/L
Na [5]: 141 meq/L
PL [5]: 154.8 mg/dL
RALB [5]: 2.6 g/dL
TBIL [5]: 0.068 mg/dL
TC [5]: 89.6 mg/dL
TG [5]: 66.8 mg/dL
TP [5]: 5.5 g/dL
gamma-GTP [5]: 1 IU/L
TERMINAL_BW [6]: 222.5 g
TERMINAL_BW [7]: 223.7 g
TERMINAL_BW [8]: 311.4 g
APTT [6]: 16 s
Bas [6]: 0%
Eos [6]: 0.8%
Fbg [6]: 271.8 mg/dL
Hb [6]: 13.2 g/dL
Ht [6]: 38.8%
Lym [6]: 85.2%
MCH [6]: 20.6 pg
MCHC [6]: 34.1%
MCV [6]: 60.3 fL
Mono [6]: 2.5%
Neu [6]: 10.2%
PT [6]: 14.5 s
Plat [6]: 106.2 x10_4/uL
RBC [6]: 643 x10_4/ul
Ret [6]: 5.5%
WBC [6]: 113.2 x10_2/uL
APTT [7]: 15.4 s
Bas [7]: 0.2%
Eos [7]: 0.8%
Fbg [7]: 318.8 mg/dL
Hb [7]: 14.1 g/dL
Ht [7]: 41.5%
Lym [7]: 86.8%
MCH [7]: 19.7 pg
MCHC [7]: 34%
MCV [7]: 57.9 fL
Mono [7]: 2.6%
Neu [7]: 8.8%
PT [7]: 15.1 s
Plat [7]: 121 x10_4/uL
RBC [7]: 720 x10_4/ul
Ret [7]: 3.8%
WBC [7]: 108.8 x10_2/uL
APTT [8]: 16.6 s
Bas [8]: 0.2%
Eos [8]: 1%
Fbg [8]: 368.6 mg/dL
Hb [8]: 13.9 g/dL
Ht [8]: 41.3%
Lym [8]: 85.8%
MCH [8]: 19.4 pg
MCHC [8]: 33.5%
MCV [8]: 57.9 fL
Mono [8]: 2.8%
Neu [8]: 9.2%
PT [8]: 14.3 s
Plat [8]: 107.6 x10_4/uL
RBC [8]: 714.8 x10_4/ul
Ret [8]: 3.8%
WBC [8]: 116.7 x10_2/uL
KIDNEY_L [6]: 1.1 g
KIDNEY_R [6]: 1 g
KIDNEY_TOTAL [6]: 2.1 g
KIDNEY_L [7]: 1.1 g
KIDNEY_R [7]: 1.1 g
KIDNEY_TOTAL [7]: 2.2 g
KIDNEY_L [8]: 1.5 g
KIDNEY_R [8]: 1.5 g
KIDNEY_TOTAL [8]: 3 g
LIVER [6]: 11.4 g
LIVER [7]: 10.8 g
LIVER [8]: 14.2 g
A/G [6]: 0.9
ALP [6]: 1211 IU/L
ALT [6]: 32.2 IU/L
AST [6]: 56.8 IU/L
BUN [6]: 14 mg/dL
CRE [6]: 0.2 mg/dL
Ca [6]: 11 mg/dL
Cl [6]: 102.5 meq/L
DBIL [6]: 0.015 mg/dL
GLC [6]: 162.2 mg/dL
IP [6]: 7.4 mg/dL
K [6]: 3.9 meq/L
LDH [6]: 55 IU/L
Na [6]: 141.2 meq/L
PL [6]: 146.8 mg/dL
RALB [6]: 2.6 g/dL
TBIL [6]: 0.055 mg/dL
TC [6]: 87 mg/dL
TG [6]: 39.5 mg/dL
TP [6]: 5.6 g/dL
gamma-GTP [6]: 1 IU/L
A/G [7]: 0.9
ALP [7]: 975.2 IU/L
ALT [7]: 27.2 IU/L
AST [7]: 86.4 IU/L
BUN [7]: 17.8 mg/dL
CRE [7]: 0.2 mg/dL
Ca [7]: 10.5 mg/dL
Cl [7]: 104.8 meq/L
DBIL [7]: 0.02 mg/dL
GLC [7]: 150.2 mg/dL
IP [7]: 7.9 mg/dL
K [7]: 3.7 meq/L
LDH [7]: 99.2 IU/L
Na [7]: 144 meq/L
PL [7]: 138.6 mg/dL
RALB [7]: 2.7 g/dL
TBIL [7]: 0.078 mg/dL
TC [7]: 92.6 mg/dL
TG [7]: 34.6 mg/dL
TP [7]: 5.9 g/dL
gamma-GTP [7]: 1.2 IU/L
A/G [8]: 0.8
ALP [8]: 579.8 IU/L
ALT [8]: 21 IU/L
AST [8]: 58.6 IU/L
BUN [8]: 14.8 mg/dL
CRE [8]: 0.2 mg/dL
Ca [8]: 10 mg/dL
Cl [8]: 103.4 meq/L
DBIL [8]: 0.016 mg/dL
GLC [8]: 144.6 mg/dL
IP [8]: 7.5 mg/dL
K [8]: 3.6 meq/L
LDH [8]: 51.2 IU/L
Na [8]: 144.6 meq/L
PL [8]: 149.6 mg/dL
RALB [8]: 2.8 g/dL
TBIL [8]: 0.096 mg/dL
TC [8]: 104.2 mg/dL
TG [8]: 36 mg/dL
TP [8]: 6.2 g/dL
gamma-GTP [8]: 1.2 IU/L
